Experimental data reported in patent publication US6773893B1, “Human ABC1 promoter and assays based thereon” (The Trustees of Columbia University in the City of New York, priority 2000, dated 2004).
Entries after “also recorded” stand apart in the source; their conditions may differ.

What was measured:
[1] = system: hABC1 mRNA in THP-1 macrophages; assay: Northern blot of ABC1 mRNA in THP-1 macrophages; assay type: cell-based, human; design: dose or concentration left out as unconfirmed; conditions: 24 h, vs ethanol
Description: (§1) The cell lines were purchased from ATCC (Rockville, Md., USA). The murine RAW 264.7, African green monkey CV-1, and human 293 or HepG2 cell lines were maintained in Dulbecco's modified Eagle's medium (DMEM) with 10% Fetal Bovine Serum (FBS), 100 U/ml penicillin and […] streptomycin. THP-1 cells were maintained in RPMI-1640 containing L-glutamine, 10% heat inactivated FBS, 100 U/ml penicillin and […] streptomycin supplemented with 0.5 mM B-mercaptoethanol. Confluent cells were differentiated with 0.2 mM phorbol 12-myristate 13-acetate (Sigma Chemical Co., St Louis, Mo., USA) in ethanol during 72 hours. Thioglycollate-elicited peritoneal macrophages were isolated from C57 Bl/6 mice as described (31).

[2] = system: LXR/hRXRα binding site of the CETP promoter; assay: Luciferase reporter with 3 copies of the LXR responsive element of the CETP promoter in 293 cells; assay type: cell-based, human; conditions: for increase in luciferase activity: absence of transfected receptors
Description: (§2) Transfections were performed in 24-wells plates with Lipofectamine reagent (transactivation experiments in CV-1 and 293 cells, FIG. 6-7) or Lipofectamine-Plus reagent (Basal activation experiments in RAW 264.7, FIG. 5) according to the manufacturer's instructions (Life Technologies, Grand Island, N.Y., USA). For basal activation experiments a total of […] of reporter DNA and 0.05 mg of PRL-CMV(Renilla) (Promega Corp., Madison, Wis., USA) per well were used. For transactivation studies we used, per well, 0.025 mg of PRL-CMV, 0.2 mg of reporter DNA and 0.1 mg of each receptors (CMX-hRXRα, CMX-hLXRα, CMV-mLXRβ) or 0.2 mg of pcDNA3. The transfected cells were cultured in lipoprotein deficient serum (LPDS) medium in the presence of […] of 22(R)-hydroxycholesterol (22(R)-HCh), 25-hydroxycholesterol (25-HCh) or 7-ketocholesterol (7-KCh), […] 9-cis retinoic acid (9CRA) (Sigma Chemical Co., St Louis, Mo., USA) or ethanol alone for 24 hours. The luciferase activities were measured using Promega Dual Luciferase assay system. Reporter plasmid used to analyse the activity of hABC1 promoter was constructed by subcloning a 1029 bp PCR fragment of hABC1 promoter (−928 bp +101 bp) into pGL3-Luc basic vector (Promega). […] A shorter promoter (−469 bp to +101 bp) was generated by digestion of this plasmid with Sac1. Where shown, error bars represent the standard deviation.

hABC1 promoter [3] = assay: hABC1 promoter-luciferase reporter in RAW 264.7 cells; assay type: cell-based, mouse; conditions: for hABC1 promoter activity compared to basal conditions: 10 μM, Firefly/Renilla luciferase ratio vs ethanol; for hABC1 promoter induction (summary statement): RAW macrophages, upstream promoter (-469 bp)
Description: In FIG. 5A a fragment of the hABC1 promoter ([…] to +101 bp) was linked to Firefly luciferase reporter gene. The resulting plasmid was cotransfected with a control reporter plasmid (Renilla luciferase) in the mouse macrophage-like RAW 264.7 cells. Four independent transfections experiments (each in triplicates) were performed. The results are expressed as a ratio between the Firefly and Renilla luciferase activities. Cells were treated with vehicle or 22(R)-Hch (10 μM), 9CRA (10 μM) and 22(R)-Hch (10 μM)+9CRA (10 μM), 24 hours in FBS medium complemented with 10% LPDS. […] Two independent experiments in triplicate were performed according to the protocol described in (a), using a shorter promoter: […] +101 pb. […] The same experiments as (a) were performed using 22(R)-Hch (10 μM), 25-Hch (10 μM), 7K-Ch (10 μM) and 9CRA (10 μM). Three to four independent experiments in duplicate or triplicate were performed. Mann Whitney tests were mean to analyze the difference between “Ethanol” and “Treatment”. In these Figures, ***=P<0.001,*=P<0.05.
as §1, §2

hABC1 promoter [4] = assay: hABC1 promoter (-469 bp +101 bp) luciferase reporter in 293 cells with or without LXR/RXR; assay type: cell-based, human; conditions: for upregulation of the hABC1 promoter: 293 cells without transfected LXR/hRXR, 10 μM, 24 h
Description: as §1, §2

LXR = conditions: from cited references; cited from earlier work
SF1 = SF1 (Homo sapiens, UniProt Q13285); conditions: from cited references; cited from earlier work
SF1, sequence (Q13285 whole entry): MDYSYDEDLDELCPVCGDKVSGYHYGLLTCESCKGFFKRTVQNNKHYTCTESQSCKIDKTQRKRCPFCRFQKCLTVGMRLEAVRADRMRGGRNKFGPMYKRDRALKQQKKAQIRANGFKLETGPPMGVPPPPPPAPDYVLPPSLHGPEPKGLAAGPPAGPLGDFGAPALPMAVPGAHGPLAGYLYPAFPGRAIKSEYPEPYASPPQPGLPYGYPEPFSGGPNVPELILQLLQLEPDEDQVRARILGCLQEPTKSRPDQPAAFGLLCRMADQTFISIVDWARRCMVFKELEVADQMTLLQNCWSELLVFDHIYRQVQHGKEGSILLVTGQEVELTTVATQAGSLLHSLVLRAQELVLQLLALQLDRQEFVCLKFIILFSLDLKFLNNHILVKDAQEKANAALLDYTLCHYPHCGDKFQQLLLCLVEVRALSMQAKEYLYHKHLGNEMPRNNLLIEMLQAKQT

hABC1 promoter [5] = assay: Transactivation of the hABC1 promoter by LXR/RXR in CV-1 cells; assay type: cell-based, human
Description: as §2, with “The cell lines were purchased from ATCC (Rockville, Md., USA). The murine RAW 264.7, African green monkey CV-1, and human 293 or HepG2 cell lines were maintained in Dulbecco's modified Eagle's medium (DMEM) with 10% Fetal Bovine Serum (FBS), 100 U/ml penicillin and […] streptomycin. THP-1 cells were maintained in RPMI-1640 containing L-glutamine, 10% heat inactivated FBS, 100 U/ml penicillin and […] streptomycin supplemented with 0.5 mM B-mercaptoethanol. Confluent cells were differentiated with 0.2 mM phorbol 12-myristate 13-acetate (Sigma Chemical Co., St Louis, Mo., USA) in ethanol during 72 hours. Thioglycollate-elicited peritoneal macrophages were isolated from C57 Bl/6 mice as described (31). Transfections” for “Transfections”

| Molecule | ABC1 mRNA induction [1] | increase in luciferase activity [2] | hABC1 promoter activity compared to basal conditions (hABC1 promoter [3]; RAW 264.7 cells, 24 h) | upregulation of the hABC1 promoter (hABC1 promoter [4]) | hABC1 promoter induction (summary statement) (hABC1 promoter [3]) | activator of LXR / LXR-RXR (LXR) | activator of SF1 (SF1) | also measured |
| --- | --- | --- | --- | --- | --- | --- | --- | --- |
| 9-cis retinoic acid [9CRA] | 2 fold | 24 fold | – | – | – | – | – | – |
| CC(C)CCC[C@@H](C)[C@H]1CC[C@H]2[C@@H]3C(=O)C=C4C[C@@H](O)CC[C@]4(C)[C@H]3CC[C@]12C [7-KCh, 7-ketocholesterol] | – | – | No significant effect; also recorded: poor activator | – | – | – | – | hABC1 promoter activity compared to 9CRA alone (hABC1 promoter [3]; RAW 264.7 cells, sterol in combination with 9CRA (10 μM each), 24 h): 2 fold |
| CC1=C(/C=C/C(C)=C\C=C\C(C)=C\C(=O)O)C(C)(C)CCC1 [9CRA, 9-cis retinoic acid] | – | – | 8 fold | 3.5 fold | 8 fold | – | – | effect on hABC1 promoter activity with transfected receptors (hABC1 promoter [4]; 293 cells transfected with LXRα/hRXRα): no additional effect; activity compared to non-transfected cells ([2]; LXR transfected): no further increase in activity |
| CC(C)CC[C@@H](O)[C@@H](C)[C@H]1CC[C@H]2[C@@H]3CC=C4C[C@@H](O)CC[C@]4(C)[C@H]3CC[C@]12C [22(R)-HCh, 22(R)-hydroxycholesterol] | 2 fold | 14 fold | 7 fold | 4.5 fold | 7 fold | good activator | poor activator | transactivation of the hABC1 promoter compared to the control with no receptor (hABC1 promoter [5]; CV-1 cells cotransfected with hRXRα/LXRα): 6 fold; transactivation of the hABC1 promoter compared to the control with no receptor (hABC1 promoter [5]; CV-1 cells cotransfected with hRXRα/LXRβ): 8 fold; activation of the hABC1 promoter (hABC1 promoter [5]; CV-1 cells without transfected receptors): 4 fold |
| C[C@H](CCCC(C)(C)O)[C@H]1CC[C@H]2[C@@H]3CC=C4C[C@@H](O)CC[C@]4(C)[C@H]3CC[C@]12C [25-HCh, 25-hydroxycholesterol] | – | – | 1.5 fold | – | – | poor activator | good activator | – |
| C[C@@H](CO)CCC[C@@H](C)[C@H]1CC[C@H]2[C@@H]3CC=C4C[C@@H](O)CC[C@]4(C)[C@H]3CC[C@]12C [27-HCh] | – | – | – | – | – | relatively poor activator | – | – |
